Experimental data: patent US6069156A, “Indole derivatives as cGMP-PDE inhibitors” (Fujisawa Pharmaceutical Co., Ltd., priority 1995, dated 2000)

Legend:
Cyclosporin nephritis = assay: Cyclosporin Nephritis Model; assay type: in vivo, Spontaneously hypertensive rats; conditions: 3.2 mg/kg orally twice a day for two weeks; cyclosporin 50 mg/kg daily
Description: Cyclosporin Nephritis Model
Spontaneously hypertensive rats weighing 250-300 g were used. Cyclosporin dissolved in olive-oil containing 5% ethanol was given orally to the animals in a daily dose 50 mg/kg for 2 weeks. After the last dosing of cyclosporin, 24-hours urine was collected for urinalysis. Blood was withdrawn from the abdominal aorta under ether anesthesia 24 hours after the last dosing of cyclosporin, and plasma was separated by centrifugation for biochemical analysis. The animal were bled to death and kidneys were removed for histopathological examination.
The each test compound (3.2 mg/kg) was dissolved in PEG 400 and given orally by the volume of 1 ml/kg twice a day for two weeks.
Biochemistry and urinalysis: Urine volume, plasma creatinine, urine creatinine, blood urea nitrogen, plasma sodium, urine sodium, plasma potassium and urine potassium, were measured with an autoanalyzer (TBA-20R Toshiba, OM-6020 Daiichi Kagaku).
Histopathology: The kidneys were fixed in phosphate-buffered 10% formalin and its paraffin specimens were prepared and these sections were stained with hematoxylin.

[1] = tested on: blood flow of corpus spongiosum penis and corpus cavernosum penis; assay: Impotence Model (c): penile blood flow in anesthetized beagle; assay type: in vivo, Male beagle
Description: (c) Male beagle weighing 8.0-12.0 kg were anesthetized with pentobarbital sodium (35 mg/kg, i.v.). After tracheotomy, the animal was artificially ventilated using a volume-cycled ventilator. The femoral artery was cannulated for continuous blood pressure and heart rate monitoring. The femoral vein was cannulated for maintenance of anesthesia and administration of tested compound. Two laser-dopper probes were placed in the corpus spongiosum penis and corpus cavernosum penis for recording blood flow. After a period of stabilization of all parameters, tested compound was injected intravenously at a various concentration. […] The increase in blood flow reached a peak value of 55% of baseline and continued for longer than 15 minutes after the administration of said compound 1.0 mg/kg.

[2] = tested on: Coronary vasospasm induced with vasopressin; assay: Vasopressin Induced-vasospasm Model (ST segment depression); assay type: in vivo, Male Donryu rats; conditions: 10 mg/kg orally 30 minutes before vasopressin 0.2 iu/kg
Description: Vasopressin Induced-vasospasm Model
Male Donryu rats, weighing 160-200 g, were anesthetized intraperitoneally with sodium pentobarbital (60 mg/kg) 15 minutes before intravenous administration of vasopressin, and the femoral vein was cannulated with polyethylene tubing (diameter 0.8 mm). Coronary vasospasm was induced with vasopressin (0.2 iu/kg) dissolved in saline through the cannula in the femoral vein. The each test compound (10 mg/kg) was administered orally 30 minutes before the administration of vasopressin. The standard limb lead II of the electrocardiogram was recorded with an electrocardiograph. The depression of ST segment was measured as the difference in the amplitudes of the ST segment after and just before the administration of vasopressin. The amplitudes of ST segment were measured at intervals of 0.5 minutes for 5 minutes after administration of vasopressin.

[3] = Toxicity by repetitive oral administration; assay type: in vivo, SD rat; conditions: 32 mg/kg once a day orally, 14 consecutive days

SMILES: CCCc1c(C(=O)C(C)C)c2ccc(C(N)=O)cc2n1Cc1ccccc1Cl [Example 6, 1-(2-chlorobenzyl)-3-isobutyryl-2-propylindole-6-carboxamide]
- recovery in a measure of blood urea nitrogen (Cyclosporin nephritis): more than 50%
- recovery in a measure of creatinine clearance (ml/kg/min) (Cyclosporin nephritis): more than 40%
- duration of increase in blood flow ([1]; 1.0 mg/kg intravenous): > 15 min
- peak value of increase in blood flow (of baseline) ([1]; 1.0 mg/kg intravenous): 55%
- blood flow of corpus spongiosum penis and corpus cavernosum penis ([1]; intravenous): increased in the blood flow of both corpus spongiosum penis and corpus cavernosum penis
- hemodynamic change ([1]; intravenous): without hemodynamic change
- inhibiting activity (depression of ST segment) [2]: more than 50%
- death on repetitive oral administration [3]: the dead at dose of 32 mg/kg once a day for 14 consecutive days could not be observed
